Ends that are not written are not given here.
Legend:
JJN-3 cells = test: Cell survival (MTT) assay, multiple myeloma cell line JJN-3; format: cell-based; conditions: 6 μM ATX-101 with 5 μM LY294002 or 10 μM SB20358
Procedure: Phosphorylated kinase levels were corrected for loading differences (β-tubulin) and normalized to untreated control cells. Data is from three independent experiments (mean±SD).
The multiple myeloma cell lines JJN-3 (gift from J. Ball, University of Birmingham, United Kingdom) were grown in RPMI 1640 (Sigma-Aldrich, Schnelldorf, Germany) supplemented with 10% FCS, 2 mM glutamine (Sigma-Aldrich), 2.5 μg/ml amphotericin B (Sigma-Aldrich) and 100 μg/ml gentamicin (Invitrogen, Carlsbad, Calif., USA). HaCaT cells (spontaneously transformed keratinocytes) were cultured in DMEM (Sigma-Aldrich) containing FCS, glutamine, amphotericin B, and gentamicin. All cells were cultured at 37° C. in a humidified atmosphere of 5% CO2.
(§1) Cells were seeded into 96-well plates and ATX-101, kinase inhibitors (SB203580 and BIRB0796), and polyIC were added alone or in combination at the indicated concentrations. Cells were exposed continuously and harvested every day for the next four days using the MTT (3-(4.5-Dimethylthiazol-2-yl)-2.5 diphenyl-tetrazolium bromide) assay (Gilljam et al., 2009, supra). The average from at least 4 wells was used to calculate cell survival.

RPMI-8226 = test: Cell growth/cytotoxicity, multiple myeloma cell line RPMI-8226; format: cell-based
Procedure: as §1
To further elucidate whether ATX-101 directly affected the MAPK and PI3K pathways, we analyzed the phosphorylation levels of downstream kinases in JJN-3 cells at different time points after ATX-101 addition. The phosphorylation of Akt and the p70 S6 kinase (downstream of mTOR) were both decreased by ATX-101 treatment.

[1] = system: p70 S6 kinase Thr389 phosphorylation; test: Western blot of p70 S6 kinase Thr389 phosphorylation in JJN-3 cells; format: cell-based; conditions: 6 μM ATX-101, 4, 8, 24 h
IFN-β = IFN-β ELISA on supernatants of stimulated monocytes; format: cell-based, human; conditions: LPS- and polyIC-stimulated monocytes; 4 μM (donor 1: 6 μM), 4 h
Procedure: Measured cytokine levels were normalized to cytokine levels from monocytes stimulated with TLR ligand alone. A two fold or higher increase in cytokine level after TLR stimulation was defined as cytokine induction. […] Isolated monocytes were stimulated with 10 ng/ml LPS and 40 μg/ml polyIC alone and in combination with 4 μM ATX-101 for 4 h. […] DRAQS was used for nuclear staining. Bar, 5 μm.
Peripheral blood mononuclear cells were isolated from A+ buffy coats (Blood Bank, St. Olav's University Hospital, Trondheim, Norway) by density gradient centrifugation (Lymphoprep; Axis-Shield PoC, Oslo, Norway). Mononucleated cells were seeded at 4 million cells/ml in serum-free RPMI 1640 supplemented with glutamine and gentamicin. […]
Monocytes were stimulated as described above. IFN-β was measured in supernatants with the VeriKine-HSTMHuman IFN-β Serum ELISA kit (Pestka Biomedical Laboratories, Piscataway, N.J., USA) according to the manufacturer's instructions with the following adaptions: the amount of supernatant was doubled from 50 to 100 μl; sample buffer was reduced from 50 to 25 μl; and antibody solution was reduced from 50 to 25 μl (reducing assay diluent, keeping same volume of antibody concentrate and diluent additive). The OD was measured at 450 nm.

monocytes = test: Annexin staining / flow cytometry of monocytes (apoptosis); format: cell-based, human; conditions: for Percentage of annexin positive cells: 4 hours, monocytes
Procedure: Annexin staining was used to determine cell viability and cells were counted using flow cytometry.
Peripheral blood […] were isolated from A+ buffy coats (Blood Bank, St. Olav's University Hospital) by density gradient centrifugation (Lymphoprep; Axis-Shield PoC, Oslo, Norway). The adherent cell fraction after 90 minute incubation, termed monocytes, were washed twice with HANKS and maintained in RPMI 1640 supplemented with 2 mM glutamine, […] gentamicin and 25% heat-inactivated HS over-night. Cells were cultured at 37° C. in a humidified atmosphere of 5% CO2 over-night. […] An R11 peptide and no peptide treatment were used as controls. After 4 hours, the cells were washed once in PBS, and re-suspended in buffer as recommended by the manufacturer of the Annexin V-Pacific Blue kit (Invitrogen). Cells were identified monocytes according to size (FSC) and granularity (SSC).

PCNA = PCNA (Homo sapiens, UniProt P12004); test: Microscale thermophoresis (MST) of peptide interaction with PCNA; format: binding
Chain of PCNA (P12004 whole entry): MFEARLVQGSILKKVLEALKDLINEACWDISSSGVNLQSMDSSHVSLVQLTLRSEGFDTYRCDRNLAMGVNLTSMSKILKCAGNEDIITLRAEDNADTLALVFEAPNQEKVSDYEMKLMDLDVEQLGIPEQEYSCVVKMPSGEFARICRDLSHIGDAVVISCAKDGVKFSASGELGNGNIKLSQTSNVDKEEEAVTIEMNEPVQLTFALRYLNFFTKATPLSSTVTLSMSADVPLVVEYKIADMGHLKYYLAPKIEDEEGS
Procedure: Microscale thermophoresis (MST) was used to determine the dissociation constant for various APIM containing peptides.
PCNA was labeled with a fluorescent molecule. The concentration of PCNA was kept constant, whereas dilutions of each APIM containing peptide were prepared (1:1).

normal cells = conditions: 4 μM dose; cited from earlier work

Ac-MDRWLVKWKKKRKIRRRRRRRRRRR [ATX-101]
growth-inhibitory effect of kinase inhibitors in combination with ATX-101 (cell growth, MTT) (JJN-3 cells): increased the growth-inhibitory effect of p38 MAPK and class I PI3K inhibitors
cytotoxic effects of melphalan in combination with kinase inhibitors and ATX-101 (RPMI-8226): enhanced the cytotoxic effects of melphalan
growth-inhibitory effects of ERK5 and MEK1 inhibitors in combination with ATX-101 (RPMI-8226): increased the growth-inhibitory effects of ERK5 and MAPK kinase 1 (MEK1) inhibitors
phosphorylation of p70 S6 kinase [1]: decreased
IFN-β secretion (IFN-β): decreased the IFN-β secretion
Percentage of annexin positive cells (monocytes; 5μM peptide treatment): 72%
Percentage of annexin positive cells (monocytes; 10 μM peptide treatment): 79%
induction of apoptosis in monocytes (monocytes; at the concentration used for cytokine secretion (4 μM)): did not induce apoptosis
interaction with PCNA by MST (in words) (PCNA): stronger interactions with PCNA than ATX-A
toxicity on normal cells in BMCS assays (normal cells): low toxicity
